According to EP0297435A2, “Aminopropanol derivatives of 3-(3'-hydroxyphenyl)-1-propanone, process for their preparation and medicines containing these compounds” (Helopharm W. Petrik GmbH & Co.KG., priority 1987, dated 1989):

Columns and labels:
[1] = system: Meerschweinchen-Papillarmuskel; experiment: Effect on contraction force of the heart, guinea pig papillary muscle; format: cell-based; conditions: contraction force (negative inotropy); for IC20: read-out: C20 CF
Excerpt: Die Wirkung auf die Kontraktionskraft des Herzens wurde am Meerschweinchen-Papillarmuskel untersucht. Hämodynamische Studien wurden bei gesunden, wie auch akut infarzierten Hunden durchgeführt.

[2] = system: Purkinje-Fasern aus Hundeherzen; experiment: Electrophysiological studies on Purkinje fibres from dog hearts (Vmax); format: cell-based, Hund; conditions: for C20 Vmax / IC20: Purkinje-Fasern aus Hundeherzen; for Prematurity Faktor Vmax: Vorzeitigkeitsindex, activity on premature extrasystoles; for Rate-Faktor von Vmax: specifically stronger activity at higher frequencies; for IC20: read-out: C20 Vmax
Excerpt: Die antiarrhythmische Wirksamkeit der erfindungsgemäßen Verbindungen wurde sowohl anhand von elektrophysiologischen Studien an Purkinje-Fasern aus Hundeherzen sowie mit Hilfe von Ouabaininduzierten ventrikulären Tachykardien bei Hunden bestimmt. […]
Als zusätzliches Kriterium wurde der Vorzeitigkeitsindex (Prematurity-Faktor) bestimmt, der die erwünschte Wirksamkeit der erfindungsgemäßen Verbindungen bei vorzeitigen Extrasystolen charakterisiert.

[3] = Acute toxicity LD50 in rats, i.v.; conditions: rat, in vivo, iv; Ratte (i.v.); read-out: LD₅₀
[4] = Acute toxicity LD50 in mice, i.v.; conditions: mouse, in vivo, iv; Maus (i.v.); read-out: LD₅₀

Compound | C20 CF [1] | C20 Vmax [2] | Prematurity Faktor Vmax [2] | Rate-Faktor von Vmax [2] | IC20 [1] [µM] | IC20 [2] [µM] | LD50 [3] [mg/kg] | LD50 [4] [mg/kg]
CCCNCC(O)COc1ccccc1C(=O)CCc1ccccc1 (centres unmarked) [A, Propafenon, reference compound] | 5,3 µM | 3,7 µM | 0,97 | 1,08 | – | – | – | –
CCCNCC(O)COc1cccc(CCC(=O)c2ccc(OC)cc2)c1.Cl (centres unmarked) [Beispiel 7, 1-(4-Methoxyphenyl)-3-[3′-(2-hydroxy-3-n-propylaminopropoxy)-phenyl]-1-propanon-hydrochlorid] | – | – | 0,90 | 1,21 | 6 | 2.9 | – | –
CCC(C)(C)NCC(O)COc1cccc(CCC(=O)c2cc(OC)c(OC)c(OC)c2)c1.Cl (centres unmarked) [Beispiel 8, 1-(3,4,5-Trimethoxyphenyl)-3-[3′-(2-hydroxy-3-tert.-pentylaminopropoxy)-phenyl]-1-propanon-hydrochlorid] | – | – | – | 5,00 | 3 | 1.6 | – | –
COc1cc(C(=O)CCc2cccc(OCC(O)CNC(C)C)c2)cc(OC)c1OC.Cl (centres unmarked) [Beispiel 9, 1-(3,4,5-Trimethoxyphenyl)-3-[3′-(2-hydroxy-3-isopropylaminopropoxy)-phenyl]-1-propanon-hydrochlorid] | – | – | 1,01 | 1,26 | 15 | 9.1 | – | –
COc1cc(C(=O)CCc2cccc(OCC(O)CNC(C)(C)C)c2)cc(OC)c1OC.Cl (centres unmarked) [Beispiel 10, 1-(3,4,5-Trimethoxyphenyl)-3-[3′-(2-hydroxy-3-tert.-butylaminopropoxy)-phenyl]-1-propanon-hydrochlorid] | – | – | 0,99 | 1,17 | 5 | 2.6 | – | –
CCC(C)(C)NCC(O)COc1cccc(CCC(=O)c2c(C)cc(C)cc2C)c1.Cl (centres unmarked) [Beispiel 11, 1-(2,4,6-Trimethylphenyl)-3-[3′-(2-hydroxy-3-tert.-pentylaminopropoxy)-phenyl]-1-propanon-hydrochlorid] | – | – | 0,95 | 1,15 | 10 | 3.3 | – | –
Cc1cc(C)c(C(=O)CCc2cccc(OCC(O)CNC(C)(C)C)c2)c(C)c1.Cl (centres unmarked) [Beispiel 14, 1-(2,4,6-Trimethylphenyl)-3-[3′-(2-hydroxy-3-tert.-butylaminopropoxy)-phenyl]-1-propanon-hydrochlorid] | – | – | 0,95 | 1,47 | 20 | 11.9 | – | –
Cc1cc(C)c(C(=O)CCc2cccc(OCC(O)CNC(C)C)c2)c(C)c1.Cc1cc(C)c(C(=O)CCc2cccc(OCC(O)CNC(C)C)c2)c(C)c1.O=C(O)C(=O)O (centres unmarked) [Beispiel 15, 1-(2,4,6-Trimethylphenyl)-3-[3′-(2-hydroxy-3-isopropylaminopropoxy)-phenyl]-1-propanon-semi-oxalat] | 7,0 µM | 1,0 µM | 0,94 | 1,09 | – | – | – | –
Cc1cc(C)c(CC(=O)Cc2cccc(OCC(O)CNC(C)(C)C)c2)c(C)c1.Cl (centres unmarked) [Beispiel 17, 1-(2,4,6-Trimethylphenyl)-3-[3′-(2-hydroxy-3-tert.-butylaminopropoxy)-phenyl]-propanon-hydrochlorid] | – | – | 0,99 | 1,12 | 15 | 1.7 | – | –
CCCNCC(O)COc1cc(CCC(=O)c2ccc(OC)c(OC)c2)ccc1OC.Cl (centres unmarked) [Beispiel 22, 1-(3,4-Dimethoxyphenyl)-3-[3′-(2-hydroxy-3-n-propylaminopropoxy)-4′-methoxyphenyl]-1-propanon-hydrochlorid] | – | – | 0,99 | 0,97 | 7 | 3.2 | – | –
COc1ccc(C(=O)CCc2ccc(OC)c(OCC(O)CNC(C)C)c2)cc1OC.Cl (centres unmarked) [Beispiel 23, 1-(3,4-Dimethoxyphenyl)-3-[3′-(2-hydroxy-3-isopropylaminopropoxy)-4′-methoxyphenyl]-1-propanon-hydrochlorid] | – | – | 1,05 | 5,00 | 6 | 2.2 | – | –
COc1ccc(C(=O)CCc2ccc(OC)c(OCC(O)CNC(C)(C)C)c2)cc1OC.Cl (centres unmarked) [Beispiel 25, 1-(3,4-Dimethoxyphenyl)-3-[3′-(2-hydroxy-3-tert.-butylaminopropoxy)-4′-methoxyphenyl]-1-propanon-hydrochlorid] | – | – | 1,01 | 1,21 | 6 | 2.4 | – | –
CCC(C)(C)NCC(O)COc1cc(CCC(=O)c2ccc(OC)c(OC)c2)ccc1OC.Cl (centres unmarked) [Beispiel 27, 1-(3,4-Dimethoxyphenyl)-3-[3′-(2-hydroxy-3-tert.-pentylaminopropoxy)-4′-methoxyphenyl]-1-propanon-hydrochlorid] | – | – | 1,05 | 1,25 | 15 | 3.5 | – | –
CCC(C)(C)NCC(O)COc1cc(CCC(=O)c2cc(OC)c(OC)c(OC)c2)ccc1OC.Cl (centres unmarked) [Beispiel 28, 1-(3,4,5-Trimethoxyphenyl)-3-[3′-(2-hydroxy-3-tert.-pentylaminopropoxy)-4′-methoxyphenyl]-1-propanon-hydrochlorid] | – | – | 1,01 | – | 6 | 1.4 | 11 | 16
COc1ccc(CCC(=O)c2cc(OC)c(OC)c(OC)c2)cc1OCC(O)CNC(C)C.Cl (centres unmarked) [Beispiel 30, 1-(3,4,5-Trimethoxyphenyl)-3-[3′-(2-hydroxy-3-isopropylaminopropoxy)-4′-methoxyphenyl]-1-propanon-hydrochlorid] | – | – | 1,01 | 1,13 | 5 | 2.5 | – | –
COc1ccc(CCC(=O)c2cc(OC)c(OC)c(OC)c2)cc1OCC(O)CNC(C)(C)C.Cl (centres unmarked) [Beispiel 31, 1-(3,4,5-Trimethoxyphenyl)-3-[3′-(2-hydroxy-3-tert.-butylaminopropoxy)-4′-methoxyphenyl]-1-propanon-hydrochlorid] | – | – | 0,97 | 1,15 | 5 | 1.4 | 13 | 18
COc1ccc(CCC(=O)c2cc(OC)c(OC)c(OC)c2)cc1OCC(O)CNC1CCCCC1.Cl (centres unmarked) [Beispiel 32, 1-(3,4,5-Trimethoxyphenyl)-3-[3′-(2-hydroxy-3-cyclohexylaminopropoxy)-4′-methoxyphenyl]-1-propanon-hydrochlorid] | – | – | 1,05 | 1,25 | 9 | 1.1 | – | –
COc1ccc(CCC(=O)c2ccccc2OC)cc1OCC(O)CNC(C)(C)C.Cl (centres unmarked) [Beispiel 35, 1-(2-Methoxyphenyl)-3-[3′-(2-hydroxy-3-tert.-butylaminopropoxy)-4′-methoxyphenyl]-1-propanon-hydrochlorid] | – | – | 0,91 | – | 10 | 3 | – | –
CCCNCC(O)COc1cc(CCC(=O)c2ccc(C)cc2)ccc1OC.Cl (centres unmarked) [Beispiel 37, 1-(4-Methylphenyl)-3-[3′-(2-hydroxy-3-n-propylaminopropoxy)-4′-methoxyphenyl]-1-propanon-hydrochlorid] | – | – | 0,94 | 1,22 | 5 | 2.6 | – | –
COc1ccc(CCC(=O)c2ccc(C)cc2)cc1OCC(O)CNC(C)(C)C.Cl (centres unmarked) [Beispiel 39, 1-(4-Methylphenyl)-3-[3′-(2-hydroxy-3-tert.-butylaminopropoxy)-4′-methoxyphenyl]-1-propanon-hydrochlorid] | – | – | 0,94 | 1,51 | 4 | 1.2 | – | –
COc1ccc(CCC(=O)c2ccc(C)cc2)cc1OCC(O)CN1CCCCC1.Cl (centres unmarked) [Beispiel 40, 1-(4-Methylphenyl)-3-[3′-(2-hydroxy-3-piperidinopropoxy)-4′-methoxyphenyl]-1-propanon-hydrochlorid] | – | – | 0,94 | 1,33 | 5 | 1.3 | – | –
CCCNCC(O)COc1cc(CCC(=O)c2c(C)cc(C)cc2C)ccc1OC.O=C(O)C(=O)O (centres unmarked) [Beispiel 44, 1-(2,4,6-Trimethylphenyl)-3-[3′-(2-hydroxy-3-n-propylaminopropoxy)-4′-methoxyphenyl]-1-propanon-oxalat] | – | – | 1,10 | 1,03 | 14 | 1.7 | – | –
CCC(C)(C)NCC(O)COc1cc(CCC(=O)c2ccc3ccccc3c2)ccc1OC.Cl (centres unmarked) [Beispiel 47, 1-(2-Naphthyl)-3-[3′-(2-hydroxy-3-tert.-pentylaminopropoxy)-4′-methoxyphenyl]-1-propanon-hydrochlorid] | – | – | 1,10 | 1,22 | 17 | 6.1 | – | –
CCCNCC(O)COc1cc(CCC(=O)c2ccc3ccccc3c2)ccc1OC.Cl (centres unmarked) [Beispiel 48, 1-(2-Napthyl)-3-[3′-(2-hydroxy-3-n-propylaminopropoxy)-4′-methoxyphenyl]-1-propanon-hydrochlorid] | 9,0 µM | 1,1 µM | 0,90 | 1,43 | – | – | – | –
COc1ccc(CCC(=O)c2ccc3ccccc3c2)cc1OCC(O)CNC(C)C.Cl (centres unmarked) [Beispiel 49, 1-(2-Naphthyl)-3-[3′-(2-hydroxy-3-isopropylaminopropoxy)-4′-methoxyphenyl]-1-propanon-hydrochlorid] | – | – | 0,50 | 4,00 | 14 | 12.1 | – | –
